{
  "source": "patent US8512751B2",
  "about": "“Pharmaceutical compositions for sleep disorders” (Collegium Pharmaceutical, Inc., priority 2004, dated 2013)",
  "origin": "cited, not measured here",
  "key": {"[1]": {"system": "sleep apnea", "details": "for effect in individuals with sleep apnea: patients, literature"}, "[2]": {"system": "serotonin uptake", "details": "animal models"}, "[3]": {"system": "sleep apnea", "details": "animal model of sleep apnea"}, "[4]": {"details": "man, single oral 40-mg dose"}, "[5]": {"system": "nocturnal sleep", "details": "healthy adults; 20, 40 and 60 mg"}, "[6]": {"system": "EOG and EMG activity"}, "[7]": {"details": "water and normal saline"}, "[8]": {"details": "in vivo"}},
  "note": "Where a name gives a salt, the structure may show the parent alone.",
  "data": [
    {"molecule": "CC(=O)Nc1nnc(S(N)(=O)=O)s1", "note": "[acetazolamide]", "values": [
      {"measurement": "effect in individuals with sleep apnea", "setting": "[1]", "result": "produced variable improvement in individuals with primary central apneas but caused an increase in obstructive apneas"}
    ]},
    {"molecule": "Cn1c(=O)c2[nH]cnc2n(C)c1=O", "note": "[theophylline]", "values": [
      {"measurement": "effect in individuals with sleep apnea", "setting": "[1]", "result": "may benefit patients with central apnea but appears to be of no use in adult patients with obstructive apnea"}
    ]},
    {"molecule": "NCC[C@H](Oc1ccc(C(F)(F)F)cc1)c1ccccc1", "note": "[S-norfluoxetine]", "values": [
      {"measurement": "inhibition of serotonin uptake, activity relative to fluoxetine", "setting": "[2]", "result": "essentially equivalent to R- or S-fluoxetine"}
    ]},
    {"molecule": "CCN1CC(CCN2CCOCC2)C(c2ccccc2)(c2ccccc2)C1=O", "note": "(stereo not drawn) [doxapram]", "values": [
      {"measurement": "effect in individuals with sleep apnea", "setting": "[1]", "result": "decrease the length of apneas but did not alter the average arterial oxygen saturation"}
    ]},
    {"molecule": "NCC[C@@H](Oc1ccc(C(F)(F)F)cc1)c1ccccc1", "note": "[R-norfluoxetine]", "values": [
      {"measurement": "inhibition of serotonin uptake, activity relative to fluoxetine", "setting": "[2]", "result": "significantly less potent than the parent drug"}
    ]},
    {"molecule": "C=CCN1CC[C@]23c4c5ccc(O)c4O[C@H]2C(=O)CC[C@@]3(O)[C@H]1C5", "note": "[naloxone]", "values": [
      {"measurement": "effect in individuals with sleep apnea", "setting": "[1]", "result": "only slightly helpful"}
    ]},
    {"molecule": "Cc1nccn1CC1CCc2c(c3ccccc3n2C)C1=O", "note": "(stereo not drawn) [Ondansetron]", "values": [
      {"measurement": "Bioavailability, effect of antacids", "setting": "antacids", "result": "unaffected"},
      {"measurement": "Mean bioavailability", "setting": "healthy subjects, single 8-mg tablet", "result": "approximately 56%"},
      {"measurement": "radiolabeled dose recovered from the urine as the parent compound", "setting": "humans", "result": "approximately 5%"},
      {"measurement": "AUC from a 16-mg tablet greater than predicted from an 8-mg tablet dose", "setting": "oral tablets", "result": 24, "unit": "%"},
      {"measurement": "half-life", "setting": "plasma, humans", "result": "3 to 5", "unit": "h"},
      {"measurement": "Bioavailability, effect of food", "setting": "presence of food", "result": "slightly enhanced"},
      {"measurement": "extent and rate of absorption, gender difference", "setting": "single dose", "result": "greater in women than men"}
    ]},
    {"molecule": "Nc1ncnc2c1ncn2[C@@H]1O[C@H](CO)[C@@H](O)[C@H]1O", "note": "[adenosine]", "values": [
      {"measurement": "reduction of apnea", "setting": "[3]", "result": "somewhat effective in reducing apnea"}
    ]},
    {"molecule": "medroxyprogesterone", "values": [
      {"measurement": "effect in individuals with sleep apnea", "setting": "[1]", "result": "no consistent benefit in OSAS"}
    ]},
    {"molecule": "CNCCCC1c2ccccc2C=Cc2ccccc21", "note": "[Protriptyline]", "values": [
      {"measurement": "effect in individuals with sleep apnea", "setting": "[1]", "result": "variable results and frequent and significant side effects"}
    ]},
    {"molecule": "CNCCC(Oc1ccc(C(F)(F)F)cc1)c1ccccc1", "note": "(stereo not drawn) [fluoxetine]", "values": [
      {"measurement": "peak plasma concentrations", "setting": "[4]", "result": "15 to 55", "unit": "ng/mL"},
      {"measurement": "time of peak plasma concentrations", "setting": "[4]", "result": "6 to 8", "unit": "h"},
      {"measurement": "effects on nocturnal sleep", "setting": "[5]", "result": "reduced the total sleep time and the duration of rapid eye movement (REM) sleep and increased awake activity and stage 1 (drowsy) sleep during the night"},
      {"measurement": "number of eye movements, EOG and EMG activity on treatment", "setting": "[6]; REM, stages 1, 2, and slow-wave sleep", "result": "significantly increases the number of eye movements"},
      {"measurement": "patients with increased EOG and EMG activity on treatment in every sleep stage", "setting": "[6]; in vivo", "result": "Thirty-four"},
      {"measurement": "individuals with OSAS with measurable benefits", "setting": "[1]; initial evidence", "result": "approximately 50%"}
    ]},
    {"molecule": "Cc1nccn1CC1CCc2c(c3ccccc3n2C)C1=O", "note": "(racemic) [Ondansetron HCl dihydrate, (±) 1,2,3,9-tetrahydro-9-methyl-3-[(2-methyl-1H-imidazol-1-yl)methyl]-4H-carbazol-4-one, monohydrochloride, dihydrate]", "values": [
      {"measurement": "solubility", "setting": "[7]", "result": "soluble in water and normal saline"}
    ]},
    {"molecule": "CC1(C)Cc2cc(Cl)cc(C(=O)NC3CC4CCC(C3)[N+]4(C)C)c2O1", "note": "(stereo not drawn) [methylated zatosetron]", "values": [
      {"measurement": "ability to cross the blood-brain barrier", "setting": "[8]", "result": "lack the ability to cross the blood-brain barrier"}
    ]}
  ]
}
